Experimental data published in article PMC8318231, “Rate-of-Kill (RoK) assays to triage large compound sets for Chagas disease drug discovery: Application to GSK Chagas Box” (PLoS Neglected Tropical Diseases, 2021).
Several values for one entry are separate records, joined by “and”; a condition that tells them apart may be missing. Equal values may be shown once.

How the values were obtained:
[1] = tested on: T. cruzi Tulahuen trypomastigotes; assay: T. cruzi trypomastigote assay (Cell Titer-Glo viability, ATP luminescence); assay type: cell-based, Trypanosoma cruzi; conditions: for Trypomastigotes pIC50 48 hours: 48 hours incubation; for Trypomastigotes pIC50 48 hours / Trypomastigotes pIC50 72 hours: pIC50 = -log10 IC50 in molar units; for Trypomastigotes pIC50 72 hours: 72 hours incubation; for 72 pIC50: 72 h
Procedure, shortened: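 Compounds were tested in dose response or once at a final 5 μM against 5 × 10^4 trypomastigotes per well (DMEM, 2% FBS), collected on days 5–8 from LLC-MK2 infected cultures. ATP luminescence via CellTiter-Glo reports live parasites; DMSO defines 0% and cell-free wells 100% effect.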

TcCYP51 = conditions: formerly reported; cited from earlier work
[2] = tested on: H9c2 (rat cardiomyocytes); assay: RoK assay, number of host cells nuclei (drug-related cytotoxicity, H9c2 output, Cmin_Tox); conditions: H9c2 host cells
Experimental: For this high-content intracellular imaging assay, H9c2 cells were seeded in 225 cm^2 T- FLASK in DMEM with 10% FBS for 4 h to allow attachment. T. cruzi trypomastigotes, collected at days 5 to 8 after infection from LLC-MK2 parasite infected cultures, were allowed to swim out for 4 h at 37°C from a centrifuged pellet (1,600 x g / 10 min). Trypomastigotes were then collected and counted in a CASY Cell Counter using the 60 μm capillary. […] Cells were washed once with PBS before incubation of the infected H9c2 monolayer with trypsin (Life-Technologies) to detach cells from the flask. Cells were counted in a CASY Cell Counter, using the 150 μm capillary, and their density set at 5 x 10^4 cells/mL in supplemented DMEM. Infected H9c2 were dispensed into 384-well plates at 50 μL per well using a Multidrop Combi dispenser. Control wells used to determine a 100% parasitic growth (full 6th column of each plate) were left untreated, whereas not infected cells were added in the control wells used as 0% parasite growth (or 100% parasite growth inhibition; full 18th column of each plate). The four plates corresponding to each RoK assay were predispensed for the same mother plate. […] Cultures were then fixed and stained with 50 μL per well of a PBS solution containing 4% formaldehyde and 2 μM DRAQ5 DNA dye (BioStatus, UK). Then plates were read in a PerkinElmer Opera Phenix using a 20x objective, 3 fields per well. DRAQ5 signal was detected using 640 nm excitation laser and a 690/50 nm emission detection filter. Automated image analysis was performed with a script developed on Acapella High Content Imaging and Analysis Software (PerkinElmer). Two outputs were provided for each sample well: (1) number of host cells nuclei to determine drug-related cytotoxicity (aka H9c2) and (2) number of amastigotes per cell as infection level measurement (aka AM/CELL). Each output is plotted as a time course for each compound at every concentration. This assay was adapted from Alonso-Padilla et al. and Peña et al..
(§1) • ME (Maximum Effect) is the maximum percentage of parasite burden reduction reached by any compound concentration. Compounds that decrease the initial parasite load will show a positive value of ME, whereas compounds that allow the progression of infection will render a negative ME value. […] It is calculated for the MCC50 (t50%_MCC50) and for the maximum concentration (t50%_Cmax). […] The value of this parameter is not either interpolated or extrapolated, and it refers to the first experimental time-course point at which a 50% of effect is reached or exceeded. • tlag defines the time elapsed for one particular concentration to reduce parasite burden between two consecutive points at any moment of the time course. It is calculated for the MCC50 (tlag_MCC50) and for the maximum concentration (tlag_Cmax). The value of this parameter is not either interpolated or extrapolated, and it refers to the first experimental time-course point of a positive slope in the normalised plot (i.e. %Cidal_Response). • Cmin_Tox (Minimal CytoToxic Concentration) is the lowest compound concentration that is reducing the number of host mammalian cells below 50% of initial cell density. Cytotoxic compounds may mislead a bona fide antiparasitic action. Therefore, this descriptor is used to flag this kind of compounds and warn about the genuine meaning of the rest of descriptors.

[3] = tested on: T. cruzi intracellular amastigotes in H9c2 cells; assay: Rate-of-Kill (RoK) high-content imaging assay, amastigotes per cell (AM/CELL) and curve descriptors; assay type: cell-based, Trypanosoma cruzi; conditions: maximum percentage of parasite burden reduction reached by any concentration, 24 hours
Experimental: For this high-content intracellular imaging assay, H9c2 cells were seeded in 225 cm^2 T- FLASK in DMEM with 10% FBS for 4 h to allow attachment. T. cruzi trypomastigotes, collected at days 5 to 8 after infection from LLC-MK2 parasite infected cultures, were allowed to swim out for 4 h at 37°C from a centrifuged pellet (1,600 x g / 10 min). Trypomastigotes were then collected and counted in a CASY Cell Counter using the 60 μm capillary. Trypomastigotes, in supplemented DMEM, were added to H9c2 cultures in a multiplicity of infection (MOI) of 8 and incubated for 18 h. Cells were washed once with PBS before incubation of the infected H9c2 monolayer with trypsin (Life-Technologies) to detach cells from the flask. Cells were counted in a CASY Cell Counter, using the 150 μm capillary, and their density set at 5 x 10^4 cells/mL in supplemented DMEM. Infected H9c2 were dispensed into 384-well plates at 50 μL per well using a Multidrop Combi dispenser. Control wells used to determine a 100% parasitic growth (full 6th column of each plate) were left untreated, whereas not infected cells were added in the control wells used as 0% parasite growth (or 100% parasite growth inhibition; full 18th column of each plate). The four plates corresponding to each RoK assay were predispensed for the same mother plate. […] Cultures were then fixed and stained with 50 μL per well of a PBS solution containing 4% formaldehyde and 2 μM DRAQ5 DNA dye (BioStatus, UK). Then plates were read in a PerkinElmer Opera Phenix using a 20x objective, 3 fields per well. DRAQ5 signal was detected using 640 nm excitation laser and a 690/50 nm emission detection filter. Automated image analysis was performed with a script developed on Acapella High Content Imaging and Analysis Software (PerkinElmer). Two outputs were provided for each sample well: (1) number of host cells nuclei to determine drug-related cytotoxicity (aka H9c2) and (2) number of amastigotes per cell as infection level measurement (aka AM/CELL). Each output is plotted as a time course for each compound at every concentration. This assay was adapted from Alonso-Padilla et al. and Peña et al..
To identify and classify the different compounds, the number of amastigotes per cell (AM/CELL) raw data obtained in rate of kill assay are normalised using the average of C1 (infected cells) at time 4 hours as 0% effect and the average of C2 (non-infected cells) for each time as 100% effect, according to the following Eq 1: %CIDALRESPONSE=100*[Avg_C14h-RawData]/[Avg_C14h-Avg_C2] (1)
as §1, with “action.” for “action. Therefore, this descriptor is used to flag this kind of compounds and warn about the genuine meaning of the rest of descriptors.”

[4] = tested on: T. cruzi intracellular amastigotes in H9c2 cells; assay: RoK combination assay with BNZ; assay type: cell-based, Trypanosoma cruzi
Experimental: The assay was performed following the same experimental procedure mentioned above in the RoK assay. The infected H9c2 cells were treated with final 10 and 50 μM concentrations of BNZ and DMSO before being dispensed into the plates containing the compounds. For the combination with 50 μM BNZ, two plates were incubated for 4 and 24 hours respectively before being fixed. For the combinations with 10 μM BNZ and with DMSO, four plates for each condition were incubated for 4, 24, 48 and 72 hours before being fixed.

Compound	Trypomastigotes pIC50 48 hours [1]	Trypomastigotes pIC50 72 hours [1]	CYP51 pIC50 (TcCYP51)	Cmin_Tox [2] [µM]	72 pIC50 (trypomastigotes, raw data of Fig 1D) ([1]; 72 hours, plotted values, censored values given without sign)	48 pIC50 ([1]; trypomastigote assay, 48 h, figure 1A)	72 pIC50 ([1]; trypomastigote assay, figure 1A)	72 pIC50 ([1]; trypomastigote assay, figure 1B)	ME 24h (maximum effect at 24 hours, intracellular amastigotes) [3] [%]	AM/CELL ([4]; combo BNDZ 10 with unnamed compound at Concentration 16.6667, time 4)	AM/CELL ([4]; combo BNDZ 10 with unnamed compound at Concentration 16.6667, time 24)	AM/CELL ([4]; combo BNDZ 10 with unnamed compound at Concentration 16.6667, time 48)	AM/CELL ([4]; combo BNDZ 10 with unnamed compound at Concentration 16.6667, time 72)	AM/CELL ([4]; combo BNDZ 10 with unnamed compound at Concentration 50, time 4)	AM/CELL ([4]; combo BNDZ 10 with unnamed compound at Concentration 50, time 24)	AM/CELL ([4]; combo BNDZ 10 with unnamed compound at Concentration 50, time 48)	AM/CELL ([4]; combo BNDZ 10 with unnamed compound at Concentration 50, time 72)
Cc1ccc(S(=O)(=O)Nc2ccc(CN3CCN(C(=O)c4cccc(C#N)c4)CC3)cc2)cc1.O=C(O)C(F)(F)F [TCMDC-143497]	< 4.3	4.9	< 4	>50													
CNc1cc(Cn2c(C(=O)c3cc(C)cc(Cl)c3)c(C(C)C)c(=O)[nH]c2=O)ccn1 [TCMDC-143637]	< 4.3	< 4.3	7.5		< 4.3	< 4.3	< 4.3	< 4.3	23.6593								
O=C(Cn1ccnc1[N+](=O)[O-])NCc1ccccc1 [BNDZ 10]										2.035 and 2.023	1.123 and 1.3558	0.3934 and 0.4677	0.5411 and 0.6092	1.931 and 1.78	0.8406 and 1.092	0.412 and 0.3872	0.6445 and 0.5238
